Experimental data from ChEMBL document CHEMBL3232975, “Using ovality to predict nonmutagenic, orally efficacious pyridazine amides as cell specific spleen tyrosine kinase inhibitors” (J Med Chem, 2014).
In brackets after ≈: the same amount, converted by molar mass.

Legend:
[1] = Apparent terminal half life in mouse at 1 mg/kg, iv; assay type: ADME, organism-based; design: dose 1 mg/kg, route intravenous; conditions: in vivo, read-out: betat1/2(app) (converted)
[2] = Volume of distribution at steady state in mouse at 1 mg/kg, iv; assay type: ADME, organism-based; design: dose 1 mg/kg, route intravenous; conditions: in vivo, read-out: Vdss
Mus musculus [3] = assay: Dose-normalized AUC in mouse at 10 to 20 mg/kg, po; assay type: ADME, organism-based; design: dose 10-20 mg/kg, route oral; conditions: in vivo
[4] = Oral bioavailability in mouse at 10 to 20 mg/kg; assay type: ADME, organism-based; conditions: in vivo
[5] = Total plasma clearance in mouse at 1 mg/kg, iv; assay type: ADME, organism-based; design: dose 1 mg/kg, route intravenous
[6] = Metabolic stability in human liver microsomes; assay type: ADME; conditions: read-out: Stability
[7] = Metabolic stability in rat liver microsomes; assay type: ADME; conditions: read-out: Stability
Mus musculus [8] = assay: Dose-normalized AUC in mouse at 5 mg/kg, po; assay type: ADME, organism-based; design: dose 5 mg/kg, route oral; conditions: in vivo
[9] = Solubility of the compound by LYSA; assay type: physicochemical
[10] = Oral bioavailability in mouse at 30 mg/kg; assay type: ADME, organism-based; conditions: in vivo
[11] = Cmax in mouse at 30 mg/kg, po; assay type: ADME, organism-based; design: dose 30 mg/kg, route oral; conditions: in vivo
[12] = Volume of distribution at steady state in mouse at 0.5 mg/kg, iv; assay type: ADME, organism-based; design: dose 0.5 mg/kg, route intravenous; conditions: in vivo, read-out: Vdss
Mus musculus [13] = assay: Dose-normalized AUC in mouse at 30 mg/kg, po; assay type: ADME, organism-based; design: dose 30 mg/kg, route oral; conditions: in vivo
[14] = Total plasma clearance in mouse at 0.5 mg/kg, iv; assay type: ADME, organism-based; design: dose 0.5 mg/kg, route intravenous
[15] = Apparent terminal half life in mouse at 0.5 mg/kg, iv; assay type: ADME, organism-based; design: dose 0.5 mg/kg, route intravenous; conditions: in vivo, read-out: betat1/2(app) (converted)
[16] = Cmax in mouse at 5 mg/kg, po; assay type: ADME, organism-based; design: dose 5 mg/kg, route oral; conditions: in vivo
[17] = Oral bioavailability in mouse at 5 mg/kg; assay type: ADME, organism-based; conditions: in vivo

half-life [1]	Vd [2]	AUC/dose (Mus musculus [3])	bioavailability [4]	clearance [5]	CLhep predicted [6]	CLhep predicted [7]	solubility [9]	Compound	further results
1.96 h	3.67 L/kg	365 ng/mL.hr/(mg/kg)	92%	42.2 mL/min/kg	–	–	–	COc1ccc(Nc2cc(N[C@@H]3CCOC[C@@H]3N)nnc2C(N)=O)nc1C(C)C	–
1.74 h	1.4 L/kg	609 ng/mL.hr/(mg/kg)	61%	16.7 mL/min/kg	–	–	–	COc1ccc(Nc2cc(NCCN)nnc2C(N)=O)nc1C(C)C	–
–	–	–	–	–	1 mL/min/kg	23 mL/min/kg	329 µg/mL (≈ 926 µM)	Cc1ccc(Nc2cc(N[C@@H]3CCCC[C@@H]3N)nnc2C(N)=O)nc1C	AUC/dose (Mus musculus [8]): 25.9 ng/mL.hr/(mg/kg)
–	–	–	–	–	2 mL/min/kg	27 mL/min/kg	404 µg/mL (≈ 1100 µM)	NC(=O)c1nnc(N[C@@H]2CCCC[C@@H]2N)cc1Nc1ccc2c(n1)CCC2	–
1.28 h	0.63 L/kg	1470 ng/mL.hr/(mg/kg)	75%	8.52 mL/min/kg	–	–	–	CCCc1nc(Nc2cc(NCCN)nnc2C(N)=O)ccc1OC	–
–	–	–	–	–	3 mL/min/kg	18 mL/min/kg	390 µg/mL (≈ 1090 µM)	Cc1nc(Nc2cc(N[C@@H]3CCCC[C@@H]3N)nnc2C(N)=O)ccc1F	bioavailability [10]: 20%; Cmax [11]: 1560 ng/mL; Vd [12]: 1.44 L/kg; AUC/dose (Mus musculus [13]): 568 ng/mL.hr/(mg/kg); clearance [14]: 5.57 mL/min/kg; half-life [15]: 3.26 h
–	–	–	–	–	2 mL/min/kg	27 mL/min/kg	471 µg/mL (≈ 1380 µM)	Cc1cccc(Nc2cc(N[C@@H]3CCCC[C@@H]3N)nnc2C(N)=O)n1	–
–	–	–	–	–	2 mL/min/kg	14 mL/min/kg	522 µg/mL (≈ 1350 µM)	COc1ccc(Nc2cc(N[C@@H]3CCCC[C@@H]3N)nnc2C(N)=O)nc1OC	–
–	–	–	–	–	7 mL/min/kg	20 mL/min/kg	345 µg/mL (≈ 918 µM)	Cc1nc(Nc2cc(N[C@@H]3CCCC[C@@H]3N)nnc2C(N)=O)ccc1Cl	bioavailability [10]: 40%; Cmax [16]: 386 ng/mL; Cmax [11]: 144 ng/mL; Vd [12]: 2.74 L/kg; AUC/dose (Mus musculus [13]): 9753 ng/mL.hr/(mg/kg); clearance [14]: 8.65 mL/min/kg; bioavailability [17]: 51%; AUC/dose (Mus musculus [8]): 970 ng/mL.hr/(mg/kg); half-life [15]: 3.92 h
